The values that follow come from US11292803B2, “Bioreducible N-oxide-based probes for imaging of hypoxia” (THE BOARD OF TRUSTEES OF THE UNIVERSITY OF ILLINOIS, priority 2018, dated 2022).

Data set [1] deals with 4T1 cells. Put plainly: Ratiometric fluorescence of cells, IVIS Spectrum. Type of data set: cell-based, murine. The following applies: hypoxic 4T1 cells. The protocol: Ratiometric fluorescence imaging was also performed on 4T1 cells cultured in 6-well plates using an IVIS Spectrum imaging system. Cells were stained with a 5 μM solution of HyP-1 and incubated in either normoxic or hypoxic conditions for 4 hours (FIG. 5c). […] To further verify the in vitro results and determine the cellular factors responsible for HyP-1 reduction, cells were also stained with HyP-1 solutions containing either BIPY or DPI at multiple concentrations and incubated under hypoxic conditions.
Authenticated 4T1 cells were purchased from ATCC. Cells were grown in RPMI 1640 medium supplemented with 10% fetal bovine serum. Cells were cultured at 37° C. in 5% CO2 and 20% 02 for normoxic conditions. Hypoxic cell culture was performed by incubating cells in a sealed container with a Mitsubishi AnaeroPack™ anaerobic gas generator. Hypoxic conditions were verified with the use of a Mitsubishi RT Anaero-Indicator.
For cellular imaging using the IVIS Spectrum imaging system, cells were plated in a 6-well plate at an initial density of 1.7×10^4 cells/mL and allowed to grow until 60-80% confluent (approximately 3 days). Media was removed and cells were washed with PBS. A […] solution of HyP-1 in serum-free medium was added, and cells were incubated under normoxic or hypoxic conditions for 4 hours. For BIPY and DPI experiments, the staining solution was supplemented with the compound at the appropriate concentration, and ratiometric turn-on was reported relative to a vehicle control. Images were obtained using excitation and emission filter sets of 675/720 nm and 745/800 nm. Regions of interest (ROIs) were drawn around cell-containing wells, and ratiometric signal was calculated by determining the ratio of radiant efficiency corresponding to 800 nm and 720 nm emissions.

Data set [2] concerns CYP450-rich rat liver microsomes. The procedure:
FIG. 4. […] (a) Representative PA image (770 nm) of reaction mixtures incubated under normoxic or hypoxic conditions for 2 h, then quenched with an equal volume of acetonitrile. Dashed lines indicate positioning of FEP tubes. (b) Change in PA signal (770 nm) produced after 2 h incubation of HyP-1 (10 μM) with rat liver microsomes (RLM) (200 μg/mL) and NADPH (50 μM) in normoxic and hypoxic conditions (n=3). (c) Ratiometric fluorescence turn-on after 2 h incubation of HyP-1 (2 μM) with RLM ([…]) and NADPH (50 μM) in normoxic or hypoxic conditions (n=3). (d) Normalized fluorescent turn-on after 1 h hypoxic incubation of HyP-1 (2 μM) with RLM (100 μg/mL) and NADPH (50 μM) under various conditions. Statistical significance represents a comparison to the hypoxic control (n=6). Results with error bars are represented as mean±SD. **p<0.01, ***p<0.001, ****p<0.0001.
The responsiveness of HyP-1 to hypoxia was first evaluated in vitro via fluorescence by incubating HyP-1 with CYP450-rich rat liver microsomes under atmospheric (normoxic) and oxygen-deprived (hypoxic) conditions. […] The PA response of HyP-1 under identical conditions was evaluated by quenching the reaction mixtures with an equal volume of acetonitrile and transferring the solutions into fluorinated ethylene propylene (FEP) tubes, which were inserted into the centre of a 2 cm thick agarose-based tissue-mimicking phantom.
For hypoxic assays only, cuvettes were sealed with septa, then evacuated and filled with N2 (×3) prior to use. Potassium phosphate buffer (0.1 M, pH 7.4) and NADPH (0.5 mM) were degassed with N2 for 30 minutes. For all assays, phosphate buffer (889 μL) rat liver microsomes (200 μg/mL) and HyP-1 (1 μL, 2 mM in DMSO) were added to the cuvette and pre-incubated at 37° C. for 5 minutes. NADPH (100 μL) was added and incubation continued with fluorescence spectra acquisition occurring at the indicated time points. Spectra were acquired according to the following parameters: λex=672, emission range=685-800 nm and λex=750, emission range=760-900 nm. For BIPY and DPI experiments, the compounds were added from stock solutions (1 M BIPY in DMSO and 50 mM DPI in deionized water) following the 5 minute preincubation, and the buffer volume was adjusted such that the total volume in the cuvette was equal to 1 mL. Deactivated microsomes were prepared by heating in a 45° C. water bath for 30 minutes.

In data set [3] the test system is ischemic hindlimb tissue. Nature of the data set: In vivo fluorescence imaging of hindlimb ischemia model. More on the design: species or system BALB/c mice. Conditions: 5 mM co-administered, ischemic hindlimb. The protocol:
To visualize the response of HyP-1 in a model of rapidly developing hypoxia, a murine hindlimb ischemia model of peripheral artery disease was employed. Ischemia was induced in the right hindlimb of BALB/c mice via ligation of the femoral artery. […] After a 1-hour recovery period, HyP-1 (50 μL, 50 μM) was administered via intramuscular injection into both hindlimbs of the mouse. To visualize the time-dependent response of HyP-1 in the ischemic and non-ischemic tissue, ratiometric fluorescence imaging was performed over the course of 1 hour immediately following injection. […]
All in vivo imaging experiments were performed with the approval of the Institutional Animal Care and Use Committee of the University of Illinois at Urbana-Champaign, following the principles outlined by the American Physiological Society on research animal use. […] Animals that underwent unsuccessful surgery as determined by laser Doppler perfusion imaging were excluded from analysis.
Images were obtained using epi-fluorescence with excitation filters of 675 and 745 and corresponding emission filters of 720 and 800, respectively. […] ROIs of equal area were drawn around signals, and the total radiant efficiency in each ROI was determined. Ratiometric signal was calculated by determining the ratio of radiant efficiency corresponding to 800 nm and 720 nm emissions.

The nature of data set [4]: Photophysical characterization (absorbance, emission, extinction coefficient, quantum yield). Type of data set: physicochemical.

`c1ccc(-c2ccccn2)nc1` [BIPY, 2,2′-bipyridine, reference compound]: the “effect on cellular response to HyP-1” value in data set [1] (1 mM) was “no effect”. In data set [1] (5 mM), the “effect on ratiometric fluorescence of HyP-1 in cells” value is listed as “only slight reduction”. In addition, in data set [2], the “effect on HyP-1 turn-on response / reduction by rat liver microsomes” value is reported as “no significant inhibition”. Further, the “ratiometric fluorescence enhancement with co-administration versus HyP-1 alone” value in data set [3] was “statistically indistinguishable”.

With `[Cl-].c1ccc([I+]c2ccccc2)cc1` [DPI, diphenyliodonium chloride, reference compound], the “inhibition of HyP-1 ratiometric fluorescence in cells” value in data set [1] (multiple concentrations (100, 500 μM)) was “significant dose-dependent inhibition”. Besides, the “effect on HyP-1 turn-on response / reduction by rat liver microsomes” value in data set [2] was “inhibition of HyP-1 reduction was achieved”.

Turning to `CC[N+]([O-])(CC)c1ccc(-c2cc(-c3ccccc3)c3n2[B-](F)(F)[N+]2=C(c4ccccc4)C=C(c4ccccc4)C2=N3)cc1` [HyP-650, 4-(5,5-difluoro-1,7,9-triphenyl-5H-54,64-dipyrrolo[1,2-c:2′,1′-f][1,3,5,2]triazaborinin-3-yl)-N,N-diethylaniline oxide], in data set [4] (in CHCl3 (Table 3)), the “Φ (fluorescence quantum yield)” value worked out at 0.027, the ε is 4.0 × 10^4 M^−1 · cm^1 and the λabs was found to be 650 nm.

Turning to `CCN(CC)c1ccc(C2=[N+]3C(=Nc4c(-c5ccccc5)cc(-c5ccc([N+]([O-])(CC)CC)cc5)n4[B-]3(F)F)C(c3ccccc3)=C2)cc1` [rHyP-1, 4-(7-(4-(diethylamino)phenyl)-5,5-difluoro-1,9-diphenyl-5H-5λ^4,6λ^4-dipyrrolo[1,2-c:2′,1′-f][1,3,5,2]triazaborinin-3-yl)-N,N-diethylaniline oxide], in data set [4] (Table 2), the Φ was determined as 0.013, the ε is listed as 5.8 × 10^4 M^−1 · cm^1 and the λabs is listed as 749 nm.

As for `CN(C)c1ccc(C2=[N+]3C(=Nc4c(-c5ccccc5)cc(-c5ccc([N+](C)(C)[O-])cc5)n4[B-]3(F)F)C(c3ccccc3)=C2)cc1` [rHyP-2], in data set [4] (Table 2), the Φ came out at 0.021, the ε is given as 4.6 × 10^4 M^−1 · cm^1 and the λabs stood at 738 nm.

Consider `CCCN(CCC)c1ccc(C2=[N+]3C(=Nc4c(-c5ccccc5)cc(-c5ccc([N+]([O-])(CCC)CCC)cc5)n4[B-]3(F)F)C(c3ccccc3)=C2)cc1` [rHyP-3], for which, in data set [4] (Table 2), the Φ was determined as 0.013, the ε is recorded as 8.0 × 10^4 M^−1 · cm^1 and the λabs is reported as 747 nm.

Take `[O-][N+]1(c2ccc(-c3cc(-c4ccccc4)c4n3[B-](F)(F)[N+]3=C(c5ccc(N6CCCCC6)cc5)C=C(c5ccccc5)C3=N4)cc2)CCCCC1` [rHyP-4]: in data set [4] (Table 2), the Φ amounted to 0.011, the ε is recorded as 9.1 × 10^4 M^−1 · cm^1 and the λabs was 748 nm.

`[O-][N+]1(c2ccc(-c3cc(-c4ccccc4)c4n3[B-](F)(F)[N+]3=C(c5ccc(N6CCOCC6)cc5)C=C(c5ccccc5)C3=N4)cc2)CCOCC1` [rHyP-5]: in data set [4] (Table 2), the Φ is on record as 0.049, the ε is given as 9.2 × 10^4 M^−1 · cm^1 and the λabs came out at 718 nm.

Regarding `CCN(CC)c1ccc(-c2cc(-c3ccccc3)c3n2[B-](F)(F)[N+]2=C(c4ccccc4)C=C(c4ccccc4)C2=N3)cc1` [red-HyP-650, 4-(5,5-difluoro-1,7,9-triphenyl-5H-54,64-dipyrrolo[1,2-c:2′,1′-f][1,3,5,2]triazaborinin-3-yl)-N,N-diethylaniline], in data set [4] (in CHCl3 (Table 3)), the “Φ (fluorescence quantum yield)” value is recorded as 0.069, the ε is given as 8.1 × 10^4 M^−1 · cm^1 and the λabs was 740 nm.

`CCN(CC)c1ccc(C2=[N+]3C(=Nc4c(-c5ccccc5)cc(-c5ccc(N(CC)CC)cc5)n4[B-]3(F)F)C(c3ccccc3)=C2)cc1` [red-rHyP-1, 4,4′-(5,5-difluoro-1,9-diphenyl-5H-4λ^4,5λ^4-dipyrrolo[1,2-c:2′,1′-f][1,3,5,2]triazaborinine-3,7-diyl)bis(N,N-diethylaniline)]: in data set [4] (Table 2), the Φ amounted to 0.013, the ε is listed as 9.9 × 10^4 M^−1 · cm^1 and the λabs is recorded as 818 nm.

In the case of `CN(C)c1ccc(C2=[N+]3C(=Nc4c(-c5ccccc5)cc(-c5ccc(N(C)C)cc5)n4[B-]3(F)F)C(c3ccccc3)=C2)cc1` [red-rHyP-2], in data set [4] (Table 2), the Φ is 0.023, the ε is reported as 8.2 × 10^4 M^−1 · cm^1 and the λabs is 798 nm.

Regarding `CCCN(CCC)c1ccc(C2=[N+]3C(=Nc4c(-c5ccccc5)cc(-c5ccc(N(CCC)CCC)cc5)n4[B-]3(F)F)C(c3ccccc3)=C2)cc1` [red-rHyP-3], in data set [4] (Table 2), the Φ came out at 0.010, the ε is listed as 9.3 × 10^4 M^−1 · cm^1 and the λabs came out at 826 nm.

Take `F[B-]1(F)n2c(-c3ccc(N4CCCCC4)cc3)cc(-c3ccccc3)c2N=C2C(c3ccccc3)=CC(c3ccc(N4CCCCC4)cc3)=[N+]21` [red-rHyP-4]: in data set [4] (Table 2), the Φ came out at 0.017, the ε was 7.6 × 10^4 M^−1 · cm^1 and the λabs worked out at 787 nm.

Consider `F[B-]1(F)n2c(-c3ccc(N4CCOCC4)cc3)cc(-c3ccccc3)c2N=C2C(c3ccccc3)=CC(c3ccc(N4CCOCC4)cc3)=[N+]21` [red-rHyP-5], for which, in data set [4] (Table 2), the Φ is 0.085, the ε is on record as 7.6 × 10^4 M^−1 · cm^1 and the λabs was determined as 758 nm.
